These results are taken from patent US5308606A, “Method of treating and/or diagnosing soft tissue tumors” (priority 1991, dated 1994).

Values joined by “and” are separate entries in the source; they are usually repeats but may differ in a detail not shown here. Equal values may be shown once. Read-outs that look alike come from different tables or passages of the source.

For data set [1] the following is noted: in vivo; cited from earlier work.
Data set [2] deals with bone. Nature of the data set: Bone uptake, scored from images of miniature pigs by 3 investigators. The settings on record: average score (0-3) of 3 investigators; head 72 hr, text 24 hour images; one value per pig.
Protocol: (§1) Studies to determine the qualitative biodistribution of the various radionuclides were conducted by injecting the compositions into miniature pigs having melanotic lesions, which occur spontaneously. ^67 Ga-citrate was used as the control and was given by the same route of administration as the test samples.
(§2) Each injected solution was from 0.5-1 mL having 1-2 mCi of ^153 Sm present.
(§3) Images of each pig (right lateral, left lateral and dorsal) were taken at 4, 24, 48 and 72 hours. The 24 hour images were evaluated independently by 3 investigators using the following scheme for the uptake of ^153 Sm in various tissues:
1=Slight uptake (negligible)
2=Moderate uptake (intermediate)
(§4) The tissues evaluated were bone, liver and tumor.
Data set [3] concerns liver. Nature of the data set: Liver uptake, scored from images of miniature pigs by 3 investigators.
Protocol: as §1, §2, §3
1=Slight uptake (negligible)
2=Moderate uptake (intermediate)
as §4
Data set [4] in a line: Whole body retention in miniature pigs having naturally occurring melanomic lesions.
Protocol: as §1
Each injected solution was from 0.5-1 mL having 1-2 mCi of ^153 Sm present. Each pig had whole body counts immediately after injection and again at 24, 48 and 72 hours.
as §3
The test system of the next data set is non-target tissues. The settings on record: in vivo; cited from earlier work.
The subject of the next data set is tumor. Nature of the data set: Tumor uptake, scored from images of miniature pigs having melanomic lesions by 3 investigators. As to conditions: for Tumor Uptake (Location): average score (0-3) of 3 investigators.
The test system of data set [5] is bone. As to conditions: pig, in vivo.
Protocol: as §1, §2, §3
1=Slight uptake (negligible)
2=Moderate uptake (intermediate)
as §4
In data set [6] the test system is liver. The settings on record: pig, in vivo.
Protocol: as §1, §2, §3
1=Slight uptake (negligible)
2=Moderate uptake (intermediate)
as §4
For data set [7] the following is noted: in vivo; cited from earlier work. This is another data set of the same source.
In data set [8] the test system is liver. As to conditions: in vivo; cited from earlier work.
A further data set concerns Ehrlich tumors. The settings on record: animals bearing Ehrlich tumors; cited from earlier work.

Turning to `O=C([O-])CC(O)(CC(=O)[O-])C(=O)[O-].[67Ga+3]` [B], the “rate of blood clearance” value in data set [1] is listed as “slow”. Besides, in the data set with bone [2], the “Bone Uptake (72 hr)” value was found to be 1.00. The “Liver Uptake (72 hrs)” value in the data set with liver [3] (average score (0-3) of 3 investigators, head 72 hrs, text 24 hour images, one value per pig) was found to be 3.00. In the data set on liver [3] (miniature pigs, in words), the liver uptake result is listed as “unacceptably large liver uptake”. Also, the “% Whole Body Retention (72 hrs.)” value in data set [4] (72 hrs, L/M ratio 20 (A), 257 (1), one value per pig) is 98.5 % of injected dose and 96.7 % of injected dose and 97.1 % of injected dose. Moreover, in data set [4] (in words), the “clearance of the extra-cellular fluid” value is reported as “never cleared the extra-cellular fluid”. Also, the “uptake in non-target tissues” value with non-target tissues was “high uptake”. Moreover, the “Tumor Uptake (Location)” value with tumor (Draining node) came out at 1.67; with tumor (Left head) it was 3.00; in the data set with tumor (Left sacrum), 0.00; in the data set with tumor (Right head), 0.33; in the data set with tumor (Right stifle), 2.00; in the data set on tumor (Right thorax) it was 3.00. Moreover, the tumor image entry with tumor (miniature pigs, relative to background radiation) is “almost indistinguishable from the high background radiation”.

With `CC(=O)Nc1cc(CN(CC(=O)O)CC(=O)O)c(O)c(CN(CC(=O)O)CC(=O)O)c1.[153Sm+3]` [Example 1], the “Bone Uptake (72 hr)” value in the data set with bone [5] is listed as 3.00. Moreover, the “Liver Uptake (72 hrs)” value with liver [6] was found to be 1.00.

With `O=C([O-])CN(CCN(CC(=O)[O-])CC(=O)[O-])CCN(CC(=O)[O-])CC(=O)[O-].[99Tc+4]` [^99m Tc-DTPA], in data set [7], the “elimination of the radionuclide” value was “eliminated from the body by the kidneys into the urine” and the “tissue localization of the radionuclide” value is reported as “does not result in the radionuclide localizing in any tissue”.

As to `[Cl][153Sm]([Cl])[Cl]` [^153 Sm-chloride], in the data set on liver [8], the liver uptake entry is on record as “high liver uptake”.

For ^99m Tc-ethylenediaminediacetic acid, in the data set with Ehrlich tumors, the imaging of tumors entry was “could be used to image tumors”.

Turning to ^153 Sm-citrate, in the data set with liver [8], the liver uptake entry is listed as “high liver uptake”.
